Measured values published in ChEMBL document CHEMBL1201862, “PubChem BioAssay data set” (2004).
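96-well plates; 48 h exposure; 5 concentrations. Endpoints by linear interpolation between flanking doses. Not reached: highest tested concentration assigned. GI50 marks 50% less growth.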 Activity calls are given as the source filed them. No stated cut-off is given here; in the data, active = GI50 up to about 1.1 µM and inactive = higher.

Assays:
Assay in all cases: growth of human tumour cells (NCI), 48 h
786-0 = system: 786-0
ACHN = system: ACHN
CAKI-1 = system: CAKI-1
DU-145 = system: DU-145
HCT-15 = system: HCT-15
KM12 = system: KM12
MCF7 = system: MCF7
MDA-N = system: MDA-N
Malme-3M = system: Malme-3M
OVCAR-3 = system: OVCAR-3
PC-3 = system: PC-3
SK-MEL-5 = system: SK-MEL-5
SK-OV-3 = system: SK-OV-3
T47D = system: T47D
UACC-62 = system: UACC-62
EKVX = system: EKVX
HL-60 = system: HL-60
Hs-578T = system: Hs-578T
K562 = system: K562
MOLT-4 = system: MOLT-4

Row | Structure (SMILES) | GI50 (786-0) | GI50 (ACHN) | GI50 (CAKI-1) | GI50 (DU-145) | GI50 (HCT-15) | GI50 (KM12) | GI50 (MCF7) | GI50 (MDA-N) | GI50 (Malme-3M) | GI50 (OVCAR-3) | GI50 (PC-3) | GI50 (SK-MEL-5) | GI50 (SK-OV-3) | GI50 (T47D) | GI50 (UACC-62) | GI50 (EKVX) | GI50 (HL-60) | GI50 (Hs-578T) | GI50 (K562) | GI50 (MOLT-4)
1 | CNC(=O)ON(C(C)=O)C(=O)NC [CARACEMIDE] | 11 µM (inactive) | 18.7 µM (inactive) | 55.2 µM (inactive) | 41.3 µM (inactive) | 31 µM | 59.8 µM (inactive) | 51.5 µM (inactive) | 15.8 µM (inactive) | 44.1 µM (inactive) | 54.1 µM (inactive) | 26.5 µM (inactive) | 40.3 µM (inactive) | 106 µM (inactive) | 9.38 µM (inactive) | 47.6 µM (inactive) |  |  |  |  | 
2 | O=c1[nH]c2ccc(CC(=S)N3CCN(c4ccccc4)CC3)cc2s1 | 34.4 µM (inactive) | 18 µM (inactive) | 77.1 µM (inactive) | 51.6 µM (inactive) | 42.2 µM | 26.2 µM (inactive) | 92 µM (inactive) | > 100 µM (inactive) | 13.5 µM (inactive) | 23.4 µM (inactive) | 18.3 µM (inactive) |  | 15.7 µM (inactive) |  | 62.7 µM (inactive) | 26.5 µM (inactive) | > 100 µM (inactive) | 13.8 µM (inactive) | 48.2 µM (inactive) | 16.5 µM (inactive)
3 | CC(O)[C@@]1(c2ccccc2)CC2(CCN(C)CC2)O[C@H]1C (stereo partly specified) | > 100 µM (inactive) | > 100 µM (inactive) | > 100 µM (inactive) | > 100 µM (inactive) | > 100 µM | > 100 µM (inactive) | > 100 µM (inactive) |  | > 100 µM (inactive) | > 100 µM (inactive) | > 100 µM (inactive) | 61.2 µM (inactive) | 41 µM (inactive) | 33.9 µM (inactive) | 99.5 µM (inactive) | > 100 µM (inactive) | 26.2 µM (inactive) | > 100 µM (inactive) | > 100 µM (inactive) | > 100 µM (inactive)
4 | COc1c(C)c(C/C=C(\C)CC/C=C(\C)CCC=C(C)C)c(OC)c(OC)c1OC | > 100 µM (inactive) | > 100 µM (inactive) | > 100 µM (inactive) | > 100 µM (inactive) | > 100 µM | > 100 µM (inactive) | 44.2 µM (inactive) | 76.9 µM (inactive) |  | > 100 µM (inactive) | > 100 µM (inactive) | 74.5 µM (inactive) | > 100 µM (inactive) |  | > 100 µM (inactive) | 83.9 µM (inactive) |  | > 100 µM (inactive) | > 100 µM (inactive) | 91.4 µM (inactive)
5 | ClC1(c2ccccc2)c2ccc(Br)cc2-c2cc(Br)ccc21 | 16.6 µM (inactive) | 16.1 µM (inactive) | 14.9 µM (inactive) | 22.6 µM (inactive) | 16 µM | 19.4 µM (inactive) | 19 µM (inactive) |  | 17 µM (inactive) | 16.9 µM (inactive) | 17.4 µM (inactive) | 15.7 µM (inactive) | 17.6 µM (inactive) | 19.7 µM (inactive) |  | 17.9 µM (inactive) | 19.3 µM (inactive) | 19.9 µM (inactive) | > 100 µM (inactive) | 32.5 µM (inactive)
6 | COc1cc(/C=C2\C[C@H]3[C@@H]4CC=C5C[C@@H](N6CCCC6)CC[C@]5(C)[C@H]4CC[C@]3(C)[C@H]2O)cc(OC)c1OC | 4.11 µM (inactive) | 15.8 µM (inactive) | 15.5 µM (inactive) | 16.8 µM (inactive) | 11.7 µM | 7.57 µM (inactive) | 8.71 µM (inactive) |  | 11.7 µM (inactive) | 15.5 µM (inactive) | 13.4 µM (inactive) | 14.5 µM (inactive) | 18.6 µM (inactive) | 20 µM (inactive) | 18.6 µM (inactive) | 16.1 µM (inactive) | 9.12 µM (inactive) | 6.11 µM (inactive) | 13 µM (inactive) | 8.11 µM (inactive)
7 | CCOC(=O)/C(=C\NC(N)=S)C(=O)c1ccccc1 | > 100 µM (inactive) | > 100 µM (inactive) | > 100 µM (inactive) | > 100 µM (inactive) | > 100 µM | > 100 µM (inactive) | > 100 µM (inactive) | > 100 µM (inactive) |  | > 100 µM (inactive) |  | > 100 µM (inactive) | > 100 µM (inactive) | > 100 µM (inactive) | > 100 µM (inactive) | > 100 µM (inactive) | > 100 µM (inactive) |  |  | > 100 µM (inactive)
8 | O=c1c(C(c2ccco2)c2c(O)oc3ccccc3c2=O)c(O)oc2ccccc12 | 25.1 µM (inactive) | 27.1 µM (inactive) | 21.8 µM (inactive) | > 100 µM (inactive) | 19.1 µM | > 100 µM (inactive) |  | 22.6 µM (inactive) | 20.5 µM (inactive) | 41.6 µM (inactive) | > 100 µM (inactive) | 40.3 µM (inactive) |  | 43.3 µM (inactive) | 25.9 µM (inactive) | 47 µM (inactive) | 67.5 µM (inactive) | 51.1 µM (inactive) | 38.6 µM (inactive) | 25.6 µM (inactive)
9 | CC1(C)c2ccccc2C(O)C12CCC(=O)CC2 (stereo unspecified) | > 100 µM (inactive) | > 100 µM (inactive) |  | > 100 µM (inactive) | > 100 µM | > 100 µM (inactive) |  | > 100 µM (inactive) | > 100 µM (inactive) | > 100 µM (inactive) | > 100 µM (inactive) | > 100 µM (inactive) | > 100 µM (inactive) | > 100 µM (inactive) | > 100 µM (inactive) | > 100 µM (inactive) | > 100 µM (inactive) | > 100 µM (inactive) | > 100 µM (inactive) | 
10 | CCCCN(CCCC)CC(=O)c1ccc2cc(Cl)c3ccccc3c2c1 | 57.4 µM (inactive) | 20.4 µM (inactive) | 29.5 µM (inactive) | > 100 µM (inactive) | 22.9 µM | 32 µM (inactive) | 30.1 µM (inactive) |  | 37.6 µM (inactive) | 51.4 µM (inactive) | 32 µM (inactive) | 17.9 µM (inactive) | 31 µM (inactive) | 17.7 µM (inactive) | 32.6 µM (inactive) | 67.3 µM (inactive) | 24.1 µM (inactive) | 35.7 µM (inactive) | 24.9 µM (inactive) | 31.5 µM (inactive)
11 | C=C(C)[C@@H]1CC[C@]2(CO)CC[C@]3(C)[C@H](CC[C@@H]4[C@@]5(C)CC[C@H](O)C(C)(C)[C@@H]5CC[C@]43C)[C@@H]12 [BETULIN] | 13.6 µM (inactive) | 11.1 µM (inactive) | 15.3 µM (inactive) | 84.3 µM (inactive) | 42.6 µM | 9.71 µM (inactive) | 19.9 µM (inactive) | 45 µM (inactive) | 52.5 µM (inactive) | 28.2 µM (inactive) | 30.2 µM (inactive) | 19.7 µM (inactive) |  | 61.4 µM (inactive) |  | 25.6 µM (inactive) | 34 µM (inactive) |  | 15.8 µM (inactive) | 32.4 µM (inactive)
12 | Cc1ccc(/C=C2\CCCCCC2=O)cc1 | > 100 µM (inactive) | > 100 µM (inactive) | > 100 µM (inactive) | > 100 µM (inactive) | > 100 µM | > 100 µM (inactive) |  | > 100 µM (inactive) | > 100 µM (inactive) | > 100 µM (inactive) | > 100 µM (inactive) | > 100 µM (inactive) | > 100 µM (inactive) | > 100 µM (inactive) | > 100 µM (inactive) | > 100 µM (inactive) | < 0.01 µM (active) | > 100 µM (inactive) | > 100 µM (inactive) | > 100 µM (inactive)
13 | C[C@@H](CO)C1=CC(C#C[Si](C)(C)C)N(C(=O)Oc2ccccc2)c2ccccc21 (stereo partly specified) | 17.2 µM (inactive) | 18.6 µM (inactive) | 24 µM (inactive) | 21.6 µM (inactive) | 6.37 µM | 14.2 µM (inactive) |  | 7.08 µM (inactive) |  | 13.2 µM (inactive) | 19.6 µM (inactive) | 16 µM (inactive) | 23.3 µM (inactive) | 18.2 µM (inactive) | 9.1 µM (inactive) | 23.3 µM (inactive) | 17.1 µM (inactive) | 25.1 µM (inactive) | 1.49 µM (inactive) | 3.29 µM (inactive)
14 | CC(O)C(CO)NC(=O)C1CSSCC(NC(=O)C(N)Cc2ccccc2)C(=O)NC(Cc2ccccc2)C(=O)NC(Cc2c[nH]c3ccccc23)C(=O)NC(CCCCN)C(=O)NC(C(C)O)C(=O)N1 (stereo unspecified) | > 100 µM (inactive) | > 100 µM (inactive) | > 100 µM (inactive) | > 100 µM (inactive) | > 100 µM | > 100 µM (inactive) | > 100 µM (inactive) | > 100 µM (inactive) | > 100 µM (inactive) | > 100 µM (inactive) | > 100 µM (inactive) | > 100 µM (inactive) |  | > 100 µM (inactive) | > 100 µM (inactive) | > 100 µM (inactive) | > 100 µM (inactive) |  | > 100 µM (inactive) | > 100 µM (inactive)
15 | c1ccc(C2(c3ccccc3)S/C(=C3/SC(c4ccccc4)(c4ccccc4)c4ccccc43)c3ccccc32)cc1 | > 100 µM (inactive) | > 100 µM (inactive) | > 100 µM (inactive) | > 100 µM (inactive) | > 100 µM | > 100 µM (inactive) |  | > 100 µM (inactive) | > 100 µM (inactive) | > 100 µM (inactive) | > 100 µM (inactive) | > 100 µM (inactive) | > 100 µM (inactive) |  | > 100 µM (inactive) | > 100 µM (inactive) | > 100 µM (inactive) | > 100 µM (inactive) | > 100 µM (inactive) | > 100 µM (inactive)
